This passage reports IC50 results from patent publication US7390925B2, “Oxime-containing acyl guanidines as beta-secretase inhibitors” (Bristol-Myers Squibb Company, priority 2006, dated 2008).

In this experiment the target is T1, BACE1 enzyme (Homo sapiens, UniProt P56817).
T1 construct: derived from HEK293 cells (Simmons, N. L. (1990)); endogenous in cells; washed 48,000 x g pellet of cell homogenate
Nature of the experiment: Radioligand displacement assay with a radiolabeled BACE inhibitor on HEK293-9B.A1 cell homogenate. It is filed as binding. As to conditions: displacement of 1 nM radioligand, HEK293-9B.A1 homogenate, pH 5.0, 1.5 hr at 25° C.; read-out: Activity Rating (activity based on IC50 values). The source says: There are a number of methods by which inhibitors of the BACE enzyme can be identified experimentally. The enzyme can be obtained from membrane samples from natural tissues or cultured cells or can be expressed recombinantly in a host cell by well known methods of molecular biology. The whole enzyme or a portion thereof can be expressed, for example, in bacterial, insect or mammalian cells to obtain a catalytically active enzyme species. The enzymatic activity and/or ligand binding capability of the enzyme can be assessed within these membrane samples, or the enzyme can be purified to varying extents. As an illustrative example, the nucleic acid sequence encoding the pro and catalytic domains of human BACE can be appended on the 5′ end with an untranslated and signal sequence from the gene for acetylcholinesterase, and on the 3′ end with a sequence encoding a poly-histidine tag. This cDNA can then be expressed in Drosophila melanogaster S2 cells in which the signal and pro sequences of the transcribed/translated protein are removed by cellular proteases and the catalytic domain, appended by a C-terminal poly-histidine tag, is secreted out into the cellular medium. The enzyme can then be purified from the culture medium by nickel affinity chromatography by methods well known to those trained in the art [Mallender, W. et al., (2001) “Characterization of recombinant, soluble beta-secretase from an insect cell expression system.” Mol. Pharmacol. 59: 619-626]. Similar strategies for expressing and purifying various forms of BACE in bacterial, mammalian and other cell types would be known to one skilled in the art. A preferred method for determining the potency of a test compound in binding to the BACE enzyme is by monitoring the displacement of a suitable radioligand.
Radioligand displacement assays with a radiolabeled BACE inhibitor (WO 2004 013098, compound 3, where the methoxy group is substituted for C(^3H)3) were carried out using standard methods (Keen, M. (1999) in Receptor Binding Techniques (Walker, J. M. ed) p. 106 Humana Press, Totowa, N. J.). The HEK293-9B.A1 cell line, which overexpresses the BACE1 enzyme, was derived from HEK293 cells (Simmons, N. L. (1990) A cultured human renal epithelioid cell line responsive to vasoactive intestinal peptide. Exp. Physiol. 75:309-19.) by RAGE™ (Harrington, J. J. et al. (2001) Creation of genome-wide protein expression libraries using random activation of gene expression. Nat. Biotechnol. 19:440-5.; U.S. Pat. Nos. 6,410,266 and 6,361,972). T225 flask cultures of HEK293-9B.A1 were grown to 80% confluency in DMEM supplemented with 2 mM L-glutamine, 10 μg/ml penicillin, 10 μg/ml streptomycin, 3 μg/ml puromycin, 100 nM methotrexate, and 10% fetal bovine serum (Invitrogen, Carlsbad, Calif.), harvested, and resuspended at 2×10^8 cells per 10 ml of lysis buffer consisting of 50 mM HEPES pH 7.0 containing a protease inhibitor cocktail of AEBSF 104 μM, aprotinin 80 nM, leupeptin 2 μM, bestatin 4 μM, pepstatin A 1.5 μM, and E-64 1.4 μM (0.1% of protease inhibitor cocktail P8340, Sigma-Aldrich, St. Louis, Mo.) at 4° C. The resuspended cells were homogenized using a Polytron (Brinkman, Westbury, N.Y.) at setting 6 for 10 sec., then centrifuged at 48,000×g for 10 min. The resulting pellet was washed by repeating the resuspension, homogenization and centrifugation steps. The final pellet was resuspended in buffer at 4° C. to yield a total protein concentration of 5 mg/ml, then aliquots were frozen in liquid nitrogen for further storage at −70° C. Immediately before carrying out a binding assay, an aliquot of cell homogenate was thawed and diluted to a concentration of 100 μg/ml in assay buffer consisting of 50 mM HEPES pH 5.0 and 0.1% CHAPSO. […]

T1 sequence (P56817 46-501): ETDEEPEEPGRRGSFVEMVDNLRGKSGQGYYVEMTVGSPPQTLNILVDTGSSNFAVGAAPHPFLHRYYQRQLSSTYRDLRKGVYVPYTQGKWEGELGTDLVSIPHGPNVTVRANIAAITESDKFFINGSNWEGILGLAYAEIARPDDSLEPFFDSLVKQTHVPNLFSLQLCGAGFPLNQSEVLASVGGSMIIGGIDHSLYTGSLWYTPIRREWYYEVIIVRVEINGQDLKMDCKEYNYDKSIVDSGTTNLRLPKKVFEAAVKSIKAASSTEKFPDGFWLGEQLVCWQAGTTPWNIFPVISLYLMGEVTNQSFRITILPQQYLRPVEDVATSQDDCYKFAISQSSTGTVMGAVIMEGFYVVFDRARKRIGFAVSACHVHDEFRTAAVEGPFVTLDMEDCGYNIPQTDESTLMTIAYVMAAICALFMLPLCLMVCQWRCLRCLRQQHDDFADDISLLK

The term IC50 denotes the point on the concentration scale where inhibition reaches its midpoint. For the compound `CON=C(CC(=O)/N=C(\N)Cc1cc(Cl)c(NC(C)=O)c(Cl)c1)c1ccc(OC)cc1` [Example 1, N-(2-(4-Acetamido-3,5-dichlorophenyl)-1-aminoethylidene)-3-(methoxyimino)-3-(4-methoxyphenyl)propanamide], the IC50 was less than 100 nM.
The result for `COc1ccc(C(CC(=O)N=C(N)NCc2cc(Cl)c(NC(C)=O)c(Cl)c2)=NOCC(C)C)cc1` [Example 18, N-((4-acetamido-3,5-dichlorobenzylamino)(amino)-methylene)-3-(isobutoxyimino)-3-(4-methoxyphenyl)propanamide] reads 100 to 1000 nM; that for `COc1ccc(C(CC(=O)/N=C(\N)NCc2cc(Cl)c(N)c(Cl)c2)=NOCC(C)C)cc1` [Example 19, N-((4-amino-3,5-dichlorobenzylamino)(amino)methylene)-3-(isobutoxyimino)-3-(4-methoxyphenyl)propanamide], more than 1000 nM.
For `CON=C(CC(=O)/N=C(\N)NCc1cc(Cl)c(N)c(Cl)c1)c1c[nH]c2ccccc12` [Example 20, N-((4-amino-3,5-dichlorobenzylamino)(amino)methylene)-3-(1H-indol-3-yl)-3-(methoxyimino)propanamide] the value was 100 to 1000 nM; for `CON=C(CC(=O)/N=C(\N)NCc1cc(Cl)c(NC(C)=O)c(Cl)c1)c1c[nH]c2ccccc12` [Example 21, N-((4-acetamido-3,5-dichlorobenzylamino)(amino)methylene)-3-(1H-indol-3-yl)-3-(methoxyimino)propanamide], less than 100 nM; for `CON=C(CC(=O)/N=C(\N)NCc1cc(C)c(C(=O)CN(C)C)c(Cl)c1)c1c[nH]c2ccccc12` [Example 22, N-((3-chloro-4-(2-(dimethylamino)acetyl)-5-methylbenzylamino)(amino)-methylene)-3-(1H-indol-3-yl)-3-(methoxyimino)propanamide], 100 to 1000 nM.
As for “N-(1-Amino-2-(3,5-dichlorophenyl)ethylidene)-3-(methoxyimino)-3-(4-methoxyphenyl)propanamide [Example 3]”, the half-inhibitory concentration (IC50) is more than 1000 nM.
The result for “N-(1-Amino-2-(3-chloro-4-(2-(dimethylamino)acetamido)-5-methylphenyl)-ethylidene)-3-(methoxyimino)-3-(4-methoxyphenyl)propanamide [Example 4]” reads 100 to 1000 nM.
With “N-(1-Amino-2-(4-amino-3,5-dichlorophenyl)ethylidene)-3-(ethoxyimino)-3-(4-methoxyphenyl)propanamide [Example 6]”, the IC50 fell in the range of 100 to 1000 nM.
The result for “N-(1-Amino-2-(4-amino-3,5-dichlorophenyl)ethylidene)-3-(methoxyimino)-3-(2-methoxyphenyl)propanamide [Example 13]” reads more than 1000 nM; that for “N-(1-Amino-2-(4-amino-3,5-dichlorophenyl)ethylidene)-3-(methoxyimino)-3-(4-methoxyphenyl)propanamide [Example 2]”, 100 to 1000 nM.
In the case of “N-(1-Amino-2-(4-amino-3,5-dichlorophenyl)ethylidene)-3-(methoxyimino)-3-(4-nitrophenyl)propanamide [Example 17]”, the IC50 lay within 100 to 1000 nM.
The result for “N-(1-Amino-2-(4-amino-3,5-dichlorophenyl)ethylidene)-3-(methoxyimino)-3-phenylpropanamide [Example 9]” reads 100 to 1000 nM.
The result for “N-(2-(4-Acetamido-3,5-dichlorophenyl)-1-aminoethylidene)-3-(4-fluorophenyl)-3-(methoxyimino)propanamide [Example 15]” reads less than 100 nM.
Consider “N-(2-(4-Acetamido-3,5-dichlorophenyl)-1-aminoethylidene)-3-(4-nitrophenyl)-3-(methoxyimino)propanamide [Example 16]”, for which the IC50 was less than 100 nM.
With “N-(2-(4-Acetamido-3,5-dichlorophenyl)-1-aminoethylidene)-3-(ethoxyimino)-3-(4-methoxyphenyl)propanamide [Example 5]”, the IC50 is less than 100 nM.
In the case of “N-(2-(4-Acetamido-3,5-dichlorophenyl)-1-aminoethylidene)-3-(methoxyimino)-3-(2-methoxyphenyl)propanamide [Example 12]”, the IC50 was in the range of 100 to 1000 nM.
The result for “N-(2-(4-Acetamido-3,5-dichlorophenyl)-1-aminoethylidene)-3-(methoxyimino)-3-(3-methoxyphenyl)propanamide [Example 11]” reads 100 to 1000 nM.
